Patent US12336536B2, “Method for controlling herbicide resistant or tolerant weeds” (BASF Agro B.V., priority 2015, dated 2025)

What was measured:
[1] = system: blackgrass (ALOMY) biotypes; test: Greenhouse test, control of resistant weed biotypes, post-emergence, blackgrass; format: in vivo, Alopecurus myosuroides; conditions: post-emergence, scale 0 to 100
Protocol: (§1) The herbicidal activity of herbicide A on resistant weed biotypes was tested in comparison with certain commercial herbicides by the following greenhouse experiments:
(§2) The culture containers used were plastic flowerpots containing loamy sand with approximately 3.0% of humus as the substrate. The seeds of the test plants were sown separately for each species. Six blackgrass (ALOMY) (10-103, 10-170, 09-591, 10-123, 11-215, 11-146) and six ryeg rass (LOLMU) (12-166, 12-143, 12-165, 12-307, 13-304, 13-313) biotypes with varying degrees of resistance towards a range of modes of action according to the HRAC (Herbicide Resistance Action Committee) classification on mode of action 2010 (see e.g http://www.hracglobal.com/pages/classificationofherbicidesiteofaction.aspx) were tested alongside two non-resistant biotypes (14-116 and 13-243), see Tables 1 and 2 below.
(§3) For the post-emergence treatment, the test plants were first grown to a height of 3 to 15 cm, depending on the plant habit, and only then treated with the active ingredients which had been suspended or emulsified in water. For this purpose, the test plants were either sown directly and grown in the same containers, or they were first grown separately as seedlings and transplanted into the test containers a few days prior to treatment.
(§4) Depending on the species, the plants were kept at 10-25° C. or 20-35° C. The test period extended over 2 to 4 weeks. During this time, the plants were tended, and their response to the individual treatments was evaluated.
(§5) The racemic mixture (±)-2-exo-(2-Methylbenzyloxy)-1-methyl-4-isopropyl-7-oxabicyclo[2.2.1]heptane was used as herbicide A and formulated as emulsifiable concentrates with an active ingredient concentration of 50 g/l, 100 g/l or 750 g/l respectively.
(§6) Flufenacet was used as a commercial concentrated solution formulation having an active ingredient concentration of 500 g/l (Cadou).
(§7) Imazamox was used as a water dispersible granule (70% WG).
(§8) Evaluation of the herbicidal activity was carried out using a scale from 0 to 100. 100 means complete destruction of at least the aerial moieties, and 0 means no damage, or normal course of growth. A good herbicidal activity is given at values of at least 70 and a very good herbicidal activity is given at values of at least 85.

[2] = system: ryegrass (LOLMU) biotypes; test: Greenhouse test, control of resistant weed biotypes, post-emergence, ryegrass; format: in vivo, Lolium multiflorum; conditions: post-emergence, scale 0 to 100
Protocol: as §1, §2, §3, §4, §5, §6, §7, §8

[3] = BT 09-591, resistant HRAC group A, B, K, 125 g ai/ha
[4] = BT 10-103, resistant HRAC group A, B, K, 125 g ai/ha
[5] = BT 10-123, resistant HRAC group A, B, C, 125 g ai/ha
[6] = BT 10-170, resistant HRAC group A, B, K, 125 g ai/ha
[7] = BT 11-146, resistant HRAC group K, 125 g ai/ha
[8] = BT 11-215, resistant HRAC group A, B, C, E, K, 125 g ai/ha
[9] = BT 14-116, Sensitive standard, 125 g ai/ha
[10] = BT 12-143, resistant HRAC group A, B, C, E, K, 125 g ai/ha
[11] = BT 12-165, resistant HRAC group A, B, E, K, 125 g ai/ha
[12] = BT 12-166, resistant HRAC group A, B, E, K, 125 g ai/ha
[13] = BT 12-307, resistant HRAC group B, F, K, O, 125 g ai/ha
[14] = BT 13-243, Sensitive standard, 125 g ai/ha
[15] = BT 13-304, resistant HRAC group A, B, E, K, 125 g ai/ha
[16] = BT 13-313, resistant HRAC group A, B, C, E, K, 125 g ai/ha

Row | SMILES | Herbicidal activity [1, 3] | Herbicidal activity [1, 4] | Herbicidal activity [1, 5] | Herbicidal activity [1, 6] | Herbicidal activity [1, 7] | Herbicidal activity [1, 8] | Herbicidal activity [1, 9] | Herbicidal activity [2, 10] | Herbicidal activity [2, 11] | Herbicidal activity [2, 12] | Herbicidal activity [2, 13] | Herbicidal activity [2, 14] | Herbicidal activity [2, 15] | Herbicidal activity [2, 16] | also measured
1 | CC(C)N(C(=O)COc1nnc(C(F)(F)F)s1)c1ccc(F)cc1 [Flufenacet, flufenacet] | 80 | 75 | 80 | 90 | 70 | 75 | 98 | 60 | 60 | 10 | 15 | 80 | 75 | 35 | Herbicidal activity ([1]; BT 09-591, resistant HRAC group A, B, K, 250 g ai/ha): 95; Herbicidal activity ([1]; BT 10-103, resistant HRAC group A, B, K, 250 g ai/ha): 90; Herbicidal activity ([1]; BT 10-123, resistant HRAC group A, B, C, 250 g ai/ha): 95; Herbicidal activity ([1]; BT 10-170, resistant HRAC group A, B, K, 250 g ai/ha): 95; Herbicidal activity ([1]; BT 11-146, resistant HRAC group K, 250 g ai/ha): 80; Herbicidal activity ([1]; BT 11-215, resistant HRAC group A, B, C, E, K, 250 g ai/ha): 95; Herbicidal activity ([1]; BT 14-116, Sensitive standard, 250 g ai/ha): 100; Herbicidal activity ([2]; BT 12-143, resistant HRAC group A, B, C, E, K, 250 g ai/ha): 60; Herbicidal activity ([2]; BT 12-165, resistant HRAC group A, B, E, K, 250 g ai/ha): 60; Herbicidal activity ([2]; BT 12-166, resistant HRAC group A, B, E, K, 250 g ai/ha): 60; Herbicidal activity ([2]; BT 12-307, resistant HRAC group B, F, K, O, 250 g ai/ha): 15; Herbicidal activity ([2]; BT 13-243, Sensitive standard, 250 g ai/ha): 95; Herbicidal activity ([2]; BT 13-304, resistant HRAC group A, B, E, K, 250 g ai/ha): 75; Herbicidal activity ([2]; BT 13-313, resistant HRAC group A, B, C, E, K, 250 g ai/ha): 50
2 | COCc1cnc(C2=NC(C)(C(C)C)C(=O)N2)c(C(=O)O)c1 (centres unmarked) [Imazamox, imazamox] | 50 | 70 | 70 | 95 | 75 | 85 | 95 | 75 | 85 | 98 | 85 | 85 | 85 | 85 | Herbicidal activity ([1]; BT 09-591, resistant HRAC group A, B, K, 62.5 g ai/ha): 20; Herbicidal activity ([1]; BT 10-103, resistant HRAC group A, B, K, 62.5 g ai/ha): 60; Herbicidal activity ([1]; BT 10-123, resistant HRAC group A, B, C, 62.5 g ai/ha): 60; Herbicidal activity ([1]; BT 10-170, resistant HRAC group A, B, K, 62.5 g ai/ha): 80; Herbicidal activity ([1]; BT 11-146, resistant HRAC group K, 62.5 g ai/ha): 75; Herbicidal activity ([1]; BT 11-215, resistant HRAC group A, B, C, E, K, 62.5 g ai/ha): 85; Herbicidal activity ([1]; BT 14-116, Sensitive standard, 62.5 g ai/ha): 95; Herbicidal activity ([2]; BT 12-143, resistant HRAC group A, B, C, E, K, 62.5 g ai/ha): 65; Herbicidal activity ([2]; BT 12-165, resistant HRAC group A, B, E, K, 62.5 g ai/ha): 70; Herbicidal activity ([2]; BT 12-166, resistant HRAC group A, B, E, K, 62.5 g ai/ha): 85; Herbicidal activity ([2]; BT 12-307, resistant HRAC group B, F, K, O, 62.5 g ai/ha): 80; Herbicidal activity ([2]; BT 13-243, Sensitive standard, 62.5 g ai/ha): 90; Herbicidal activity ([2]; BT 13-304, resistant HRAC group A, B, E, K, 62.5 g ai/ha): 90; Herbicidal activity ([2]; BT 13-313, resistant HRAC group A, B, C, E, K, 62.5 g ai/ha): 80
